According to PMC5610524, “Tools for the Individualized Therapy of Teicoplanin for Neonates and Children” (Antimicrobial Agents and Chemotherapy, 2017):

What was measured:
[1] = Nonparametric population PK model (two-compartment, allometric, renal function) fitted to plasma teicoplanin concentrations in neonates, infants and children; format: in vivo, human; settings: final model
Excerpt: Pharmacokinetic data from 57 children (39 children aged 1 month to 16 years old and 18 neonates with a postmenstrual age [PMA] between 26 and 44 weeks) were available for model building. Patients were prospectively enrolled from two different hospitals in Liverpool (Alder Hey NHS Children's Foundation Trust and Liverpool Women's Hospital) over a 21-month period (April 2013 and January 2015). These PK data have been reported previously in two separate population models ([1], [2]). […] Such an approach avoids the problem of having multiple pharmacokinetic models for the same drug, each with an arbitrarily chosen cutoff value for age or size.
Neonates with a PMA of ≤44 weeks received a loading dose of 16 mg/kg, followed by 8 mg/kg once daily via a 30-min intravenous (i.v.) infusion. Children >1 month old received three loading dosages of 10 mg/kg every 12 h, followed by 10 mg/kg once daily via an i.v. bolus infusion (2 to 5 min), according to the dosages currently recommended by the SPC ([11]). Plasma samples were collected during the first dosage interval and then at steady state (1, 3, 6, and 24 h postdose) on days 3 to 7 of therapy. Neonates weighing <1,000 g contributed two samples per dosing interval because of constraints on sample volume. The duration of the treatment course was at the discretion of the treating physician. All patients received teicoplanin for proven or suspected methicillin-resistant staphylococcal sepsis (due to either coagulase-negative staphylococci [CoNS] or MRSA) and/or central-line-associated bloodstream infection. Demographic variables included weight, height, age in years, PMA in weeks, postnatal age (PNA) in days, serum albumin concentration (in grams per liter), and serum creatinine concentration. The estimated glomerular filtration rate (eGFR) (Schwartz-Haycock) ([28]) was also available for each patient.
Teicoplanin concentrations were measured using a commercially available fluorescence polarization immunoassay (FPIA; Thermo Fisher Scientific, Germany). The limit of quantification (LOQ) was <3.0 mg/liter. The dynamic range was 3 to 100 mg/liter, and overall precision (intra- and interday variability) was <6%.
A PK model was fitted to the data using Pmetrics, version 1.4.2 for R, statistical package 3.2.2, which utilizes the nonparametric adaptive grid (NPAG) algorithm ([29]). The inverse of the estimated assay variance was used to weight the data. Initially, a standard two-compartment model with time-delimited zero-order i.v. input and first-order elimination from the central compartment was developed. The standard model is described by differential equations 1a and 1b below: (1a) dX(1)/dt=R(1)−(Kcp+Cl/V)⋅X(1)+[Kpc⋅X(2)] (1b) dX(2)/dt=Kcp⋅X(1)−Kpc⋅X(2) where X(1) and X(2) represent the amounts of teicoplanin (in milligrams) in the central (c) and peripheral (p) compartments, respectively; R(1) is the rate of infusion of the drug into the central compartment (in milligrams per hour); clearance (Cl) from the central compartment is measured in liters per hour; volume (V) is measured in liters; and the central and peripheral compartments are connected by the first-order rate constants Kcp and Kpc (measured per hour).
In neonates and children, clearance generally scales with size in a nonlinear manner that is best described using a power function. A scaling exponent of 0.75 is most frequently used (i.e., clearance is proportional to weight^0.75). In addition, physiological maturation may also affect clearance, and this is especially important for neonates and young infants ([30], [31]). In the model-building process, we switched from using clearance to using Ke (measured per hour) as the first-order elimination rate constant, where Ke is calculated as Cl/V and is proportional to weight^−0.25. While it is possible to estimate the scaling exponents directly, we chose to fix these values as previously described by others ([24], [30], [31]). […]

[2] = BestDose multiple-model Bayesian adaptive dose optimization software, individual simulations for an infant and an older child; set-up: species or system human; settings: trapezoidal approximation to hourly software predictions
Excerpt: We incorporated the final population PK model into a teicoplanin multiple-model Bayesian adaptive dosing controller (the software “cartridge”). The controller is based on the concepts and software (BestDose) developed by the University of Southern California Laboratory for Applied Pharmacokinetics and Bioinformatics (LAPKB) (http://www.lapk.org) ([35], [36]). The teicoplanin cartridge included the final structural model equations relating input (dosing information) to output (concentrations of the drug in plasma) and the discrete joint probability distribution of the values of the equation variables (PK parameters) in the population, consisting of a discrete number of support points and their associated probabilities (the Bayesian prior). […]
The dose optimization software was tested by comparing the estimated predicted PK profile plot against the observations, as well as by the linear regression of the observed-versus-predicted concentrations for each individual patient. From the predicted concentrations based on the median individual Bayesian posterior parameter distribution, we calculated the bias, which is equal to the mean weighted predicted error (∑ wpe/N), where wpe is (predicted concentration − actual concentration)/(SD for each prediction/observation), N is the number of observations, and the percentage of bias. […]

- V01, weight-standardized volume of the central compartment (V0), mean ([1]; n = 57, occasion 1 (<96 h), Volume = V0 · (wt/70), population mean): 22.636 L
- V01, weight-standardized volume of the central compartment (V0), median ([1]; n = 57, occasion 1 (<96 h), Volume = V0 · (wt/70), population median): 19.52 L
- Ke01, weight-standardized elimination rate constant (Ke0), median ([1]; n = 57, occasion 1 (<96 h), standardized to 70 kg, Ke = Ke0 · (wt/70)^−0.25 · Renal, population median): 0.03 h⁻¹
- Ke02, weight-standardized elimination rate constant (Ke0), mean ([1]; n = 57, occasion 2 (samples ≥96 h), standardized to 70 kg, population mean): 0.036 h⁻¹
- V02, weight-standardized volume of the central compartment (V0), mean ([1]; n = 57, occasion 2 (≥96 h), Volume = V0 · (wt/70), population mean): 22.472 L
- V02, weight-standardized volume of the central compartment (V0), median ([1]; n = 57, occasion 2 (≥96 h), Volume = V0 · (wt/70), population median): 22.7 L
- Ke02, weight-standardized elimination rate constant (Ke0), median ([1]; n = 57, occasion 2 (≥96 h), standardized to 70 kg, population median): 0.025 h⁻¹
- pw, power function (Renal = eGFR^pw), mean ([1]; n = 57, patients >3 months old, population mean): 0.125
- pw, power function (Renal = eGFR^pw), median ([1]; n = 57, patients >3 months old, population median): 0.07
- Kcp, first-order intercompartmental rate constant, mean ([1]; n = 57, population mean): 0.490 h⁻¹
- Kpc, first-order intercompartmental rate constant, mean ([1]; n = 57, population mean): 0.214 h⁻¹
- Kcp, first-order intercompartmental rate constant, median ([1]; n = 57, population median): 0.23 h⁻¹
- Kpc, first-order intercompartmental rate constant, median ([1]; n = 57, population median): 0.12 h⁻¹
- Ke01, weight-standardized elimination rate constant (Ke0), mean ([1]; n = 57 neonates and children, i.v., occasion 1 (samples <96 h after treatment initiation), standardized to 70 kg, Ke = Ke0 · (wt/70)^−0.25 · Renal, population mean): 0.038 h⁻¹
- Median (range) 24-h AUC along the treatment course ([2]; Patient 1 (infant, 5 months, 6.3 kg, eGFR 63.84 ml/min/1.73 m^2)): 493.8 (355.8–574) mg · h/liter
- Median (range) 24-h AUC along the treatment course ([2]; Patient 2 (child, 16.3 kg, eGFR 108.41 ml/min/1.73 m^2)): 368.1 (318.9–388.4) mg · h/liter
Substance: teicoplanin
